Each compound was assayed on UT7/EPO Cell line (assay: Cell Proliferation Assay (UT7/EPO, ViaLight Plus)). Details: proliferative effect; compounds at 10 uM; UT7/EPO cells starved of EPO overnight; 72 hours at 37° C.; ViaLight Plus kit.
Assay type: cell-based, human
Procedure: The primary testing for the examplfied compounds was performed in UT7/EPO Cell line. UT7/EPO is human leukemia cell line, obtained from Dr. Norio Komatsu (Blood, Vol 82 (2), pp 456-464, 1993). These cells express endogenous EPO receptor and are dependant upon EPO for growth and proliferation. Briefly, the cells were starved of EPO overnight and plated in 96 or 384 well plates. The compounds were added to the cells at 10 uM concentration. The plates were then incubated at 37° C. for 72 hours. The proliferative effect of the compounds was measured by a commercially available kit from Lonza (ViaLight Plus).

Structure (SMILES)	Activity (%)
O=C(Nc1ccc2c(cnn2-c2ccc(NC(=O)c3cccs3)cc2)c1)c1ccc(N2CCCC(CO)C2)cc1 (racemic) [Compound 520, (±)-N-(4-(5-(4-(3-Hydroxymethyl)piperidin-1-yl)benzamido)-1H-indazol-1-yl)phenyl)thiophene-2-carboxamide]	13
O=C(Nc1ccc(C(=O)c2ccc(NC(=O)c3ccc[nH]3)cc2)cc1)c1ccc(N2CCCC(CO)C2)cc1 (racemic) [Compound 700, (±)-N-(4-(4-(4-(3-(Hydroxymethyl)piperidin-1-yl)benzamido)benzoyl)phenyl)-1H-pyrrole-2-carboxamide]	14
CN(C)c1ccc(C(=O)N/N=C/c2cccc(/C=N/NC(=O)c3ccc(N(C)C)cc3)c2)cc1 [Compound 103, (N′,N′″E,N′,N′″E)-N′,N′″-(1,3-phenylenebis(methanylylidene))bis(4-(dimethylamino)benzohydrazide)]	16
COc1ccc(/C=N/NC(=O)c2ccc(N(C)C)cc2)cc1/C=N/NC(=O)c1ccc(N(C)C)cc1 [Compound 106, (N′,N′″E,N′,N′″E)-N′,N′″-((4-methoxy-1,3-phenylene)bis(methanylylidene))bis(4-(dimethylamino)benzohydrazide)]	14
CN(C)c1ccc(C(=O)N/N=C/c2cc(/C=N/NC(=O)c3ccc(N(C)C)cc3)cc(OCc3ccccc3)c2)cc1 [Compound 107, (N′,N′″E,N′,N′″E)-N′,N′″-((5-(benzyloxy)-1,3-phenylene)bis(methanylylidene))bis(4-(dimethylamino)benzohydrazide)]	17
C=CCOc1cc(/C=N/NC(=O)c2ccc(N(C)C)cc2)cc(/C=N/NC(=O)c2ccc(N(C)C)cc2)c1 [Compound 113, (N′,N′″E,N′,N′″E)-N′,N′″-((5-(allyloxy)-1,3-phenylene)bis(methanylylidene))bis(4-(dimethylamino)benzohydrazide)]	17
O=C(N/N=C/c1cccc(/C=N/NC(=O)c2ccc(N(CC(F)(F)F)CC(F)(F)F)cc2)c1)c1ccc(N(CC(F)(F)F)CC(F)(F)F)cc1 [Compound 115, (N′,N′″E,N′,N′″E)-N′,N′″-(1,3-phenylenebis(methanylylidene))bis(4-(bis(2,2,2-trifluoroethyl)amino)benzohydrazide)]	22
Cn1ccc2cc(C(=O)N/N=C/c3cccc(/C=N/NC(=O)c4ccc5c(ccn5C)c4)c3)ccc21 [Compound 125, (N′,N′″E,N′,N′″E)-N′,N′″-(1,3-phenylenebis(methanylylidene))bis(1-methyl-1H-indole-5-carbohydrazide)]	15
CN(C)c1ccc(C(=O)N/N=C/c2cc(/C=N/NC(=O)c3ccc(N(C)C)cc3)cc(COCc3ccccc3)c2)cc1 [Compound 128, (N′,N′″E,N′,N′″E)-N′,N′″-((5-((benzyloxy)methyl)-1,3-phenylene)bis(methanylylidene))bis(4-(dimethylamino)benzohydrazide)]	20
CN(C)c1ccc(C(=O)N/N=C/c2cc(/C=N/NC(=O)c3ccc(N(C)C)cc3)cc(NCCO)c2)cc1 [Compound 135, (N′,N′″E,N′,N′″E)-N′,N′″-((5-((2-hydroxyethyl)amino)-1,3-phenylene)bis(methanylylidene))bis(4-(dimethylamino)benzohydrazide)]	16
COc1cccc(/C=N/NC(=O)c2ccc(C(=O)NCCC(=O)NCCO)cc2)c1 [Compound 141, (E)-N-(3-((2-hydroxyethyl)amino)-3-oxopropyl)-4-(2-(3-methoxybenzylidene)hydrazinecarbonyl)benzamide]	19
COc1cc(/C=N/NC(=O)c2ccc(C(=O)NCCC(=O)NCCO)cc2)ccc1O [Compound 146, (E)-4-(2-(4-hydroxy-3-methoxybenzylidene)hydrazinecarbonyl)-N-(3-((2-hydroxyethyl)amino)-3-oxopropyl)benzamide]	19
CN(C)c1cccc(/C=N/NC(=O)c2ccc(C(=O)NCCC(=O)NCCO)cc2)c1 [Compound 149, (E)-4-(2-(3-(dimethylamino)benzylidene)hydrazinecarbonyl)-N-(3-((2-hydroxyethyl)amino)-3-oxopropyl)benzamide]	22
CN(C)c1cccc(/C=N/NC(=O)c2ccc(NCCCC(=O)NCCO)cc2)c1 [Compound 151, (E)-4-((4-(2-(3-(dimethylamino)benzylidene)hydrazinecarbonyl)phenyl)amino)-N-(2-hydroxyethyl)butanamide]	20
COc1cccc(/C=N/NC(=O)c2ccc3c(ccn3CCCC(=O)Nc3cccc(N(C)C)c3)c2)c1 [Compound 156, (E)-N-(3-(dimethylamino)phenyl)-4-(5-(2-(3-methoxybenzylidene)hydrazinecarbonyl)-1H-indol-1-yl)butanamide]	21
COCCNC(=O)CCCn1ccc2cc(C(=O)N/N=C/c3cccc(-n4cccn4)c3)ccc21 [Compound 160, (E)-4-(5-(2-(3-(1H-pyrazol-1-yl)benzylidene)hydrazinecarbonyl)-1H-indol-1-yl)-N-(2-methoxyethyl)butanamide]	22
COc1cccc(/C=N/NC(=O)c2ccc(C(=O)NCCC(=O)NCCCCO)cc2)c1 [Compound 165, (E)-N-(3-((4-hydroxybutyl)amino)-3-oxopropyl)-4-(2-(3-methoxybenzylidene)hydrazinecarbonyl)benzamide]	19

Structure (SMILES)	Activity (%)
O=C(Nc1ccc2[nH]c(-c3ccccc3)nc2c1)c1ccc(-c2ccccc2)cc1 [Compound 172, N-(2-Phenyl-1H-benzo[d]imidazol-5-yl)-[1,1′-biphenyl]-4-carboxamide]	12
COc1ccc(C(=O)Nc2ccc3[nH]c(-c4ccc(N5CCCC5)cc4)nc3c2)cc1 [Compound 177, 4-Methoxy-N-(2-(4-(pyrrolidin-1-yl)phenyl)-1H-benzo[d]imidazol-5-yl)benzamide]	15
CN(C)c1ccc(C(=O)Nc2ccc3[nH]c(-c4ccc5c(c4)OCCN5C)nc3c2)cc1 [Compound 181, 4-(Dimethylamino)-N-(2-(4-methyl-3,4-dihydro-2H-benzo[b][1,4]oxazin-7-yl)-1H-benzo[d]imidazol-5-yl)benzamide]	20
CN(C)c1ccc(C(=O)Nc2ccc3[nH]c(-c4ccc5nonc5c4)nc3c2)cc1 [Compound 186, N-(2-(benzo[c][1,2,5]oxadiazol-5-yl)-1H-benzo[d]imidazol-5-yl)-4-(dimethylamino)benzamide]	15
CN(C)c1ccc(NC(=O)c2ccc(-c3nc4cc(NC(=O)c5ccccc5)ccc4[nH]3)cc2)cc1 [Compound 191, 4-(5-benzamido-1H-benzo[d]imidazol-2-yl)-N-(4-(dimethylamino)phenyl)benzamide]	18
CN(C)c1ccc(NC(=O)c2ccc(-c3nc4cc(C(=O)Nc5ccc(N(C)C)cc5)ccc4[nH]3)cc2)cc1 [Compound 197, N-(4-(dimethylamino)phenyl)-2-(4-((4-(dimethylamino)phenyl)carbamoyl)phenyl)-1H-benzo[d]imidazole-5-carboxamide]	20
CN(C)c1ccc(C(=O)Nc2ccc3[nH]c(-c4ccc(-c5nn[nH]n5)cc4)nc3c2)cc1 [Compound 202, N-(2-(4-(2H-tetrazol-5-yl)phenyl)-1H-benzo[d]imidazol-5-yl)-4-(dimethylamino)benzamide]	17
CN(C)c1ccc(C(=O)Nc2ccc3[nH]c(-c4ccc(N(C)C)cc4)nc3c2)cc1 [Compound 206, 4-(dimethylamino)-N-(2-(4-(dimethylamino)phenyl)-1H-benzo[d]imidazol-5-yl)benzamide]	18
COc1ccc(-c2nc3cc(NC(=O)c4cccs4)ccc3[nH]2)cc1 [Compound 210, N-(2-(4-methoxyphenyl)-1H-benzo[d]imidazol-5-yl)thiophene-2-carboxamide]	17
O=C(Nc1ccccc1)c1ccc(-c2nc3cc(NC(=O)c4ccc(N5CCCCC5)cc4)ccc3[nH]2)cc1 [Compound 215, N-phenyl-4-(5-(4-(piperidin-1-yl)benzamido)-1H-benzo[d]imidazol-2-yl)benzamide]	16
CN(C)c1ccc(C(=O)Nc2ccc3[nH]c(-c4ccc(-c5ccc(N(C)C)cc5)cc4)nc3c2)cc1 [Compound 220, 4-(dimethylamino)-N-(2-(4′-(dimethylamino)-[1,1′-biphenyl]-4-yl)-1H-benzo[d]imidazol-5-yl)benzamide]	19
O=C(Nc1ccc2[nH]c(-c3ccc(N4CCCC4)cc3)nc2c1)c1ccc(N2CCCC2)cc1 [Compound 225, 4-(pyrrolidin-1-yl)-N-(2-(4-(pyrrolidin-1-yl)phenyl)-1H-benzo[d]imidazol-5-yl)benzamide]	20
NNC(=O)c1ccc(-c2nc3cc(NC(=O)c4ccc(N5CCCC5)cc4)ccc3[nH]2)cc1 [Compound 230, N-(2-(4-(hydrazinecarbonyl)phenyl)-1H-benzo[d]imidazol-5-yl)-4-(pyrrolidin-1-yl)benzamide]	21
CN(CCO)c1ccc(C(=O)Nc2ccc3[nH]c(-c4ccc(C(=O)NC5CC5)cc4)nc3c2)cc1 [Compound 235, N-cyclopropyl-4-(5-(4-((2-hydroxyethyl)(methyl)amino)benzamido)-1H-benzo[d]imidazol-2-yl)benzamide]	15
O=C(Nc1ccc2[nH]c(-c3ccc(C(=O)NC4CC4)cc3)nc2c1)c1ccc(N2CCC(O)C2)cc1 (stereo not drawn) [Compound 240, N-cyclopropyl-4-(5-(4-(3-hydroxypyrrolidin-1-yl)benzamido)-1H-benzo[d]imidazol-2-yl)benzamide]	15
O=C(Nc1ccc(N2CCNCC2)cc1)c1ccc(-c2nc3cc(NC(=O)c4ccc(N5CCNCC5)cc4)ccc3[nH]2)cc1 [Compound 251, 4-(piperazin-1-yl)-N-(2-(4-((4-(piperazin-1-yl)phenyl)carbamoyl)phenyl)-1H-benzo[d]imidazol-5-yl)benzamide]	14
